One test deals with T1, c-MET (HGFR) (Homo sapiens, UniProt P08581).
T1 construct: purchased Upstate 14-526
T1 sequence (P08581 974-1390 limits assumed): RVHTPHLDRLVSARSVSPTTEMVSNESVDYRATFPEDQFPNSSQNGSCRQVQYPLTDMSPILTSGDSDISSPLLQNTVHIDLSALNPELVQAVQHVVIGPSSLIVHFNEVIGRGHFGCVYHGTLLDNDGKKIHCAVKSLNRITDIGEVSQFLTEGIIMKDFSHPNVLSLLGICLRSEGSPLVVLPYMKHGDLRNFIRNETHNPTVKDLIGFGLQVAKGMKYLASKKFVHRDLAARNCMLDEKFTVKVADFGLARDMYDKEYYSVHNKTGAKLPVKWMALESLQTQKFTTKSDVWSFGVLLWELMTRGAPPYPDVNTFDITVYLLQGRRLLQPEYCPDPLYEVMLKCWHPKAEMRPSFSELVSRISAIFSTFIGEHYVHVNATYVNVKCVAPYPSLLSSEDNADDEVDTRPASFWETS
As to the kind of experiment: HGFR Continuous-Coupled Spectrophotometric Assay. To be noted: Met-2 substrate peptide, 50 nM HGFR, 37° C.; read-out: Met Ki. It counts as biochemical. In short, it runs like this: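 Tyrosine kinase activity of 50 nM HGFR on the activation-loop Met-2 peptide, followed as NADH consumption at 340 nm over 10 min at 37 °C in a pyruvate kinase/LDH coupled system, HEPES pH 7.5 buffer with MgCl2 and DTT.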
For the compound `CCS(=O)(=O)N1CCC(n2cc(-c3cnc(N)c(OC(C)c4c(Cl)ccc(F)c4Cl)c3)cn2)CC1` (stereo not drawn) [Example 121], the Ki amounted to 16 nM.

As for `CC(Oc1cc(-c2cnn(C3CCN(C(=O)NCCO)CC3)c2)cnc1N)c1c(Cl)ccc(F)c1Cl` (stereo not drawn) [Example 122, 4-(4-[6-Amino-5-[1-(2,6-dichloro-3-fluoro-phenyl)-ethoxy]-pyridin-3-yl}-pyrazol-1-yl)-piperidine-1-carboxylic acid (2-hydroxy-ethyl)-amide], the inhibition constant (Ki) worked out at 150 nM. Take `CC(Oc1cc(-c2cnn(C3CCN(C(=O)CN4CCOCC4)CC3)c2)cnc1N)c1c(Cl)ccc(F)c1Cl` (stereo not drawn) [Example 123, 1-[4-(4-{6-Amino-5-[1-(2,6-dichloro-3-fluoro-phenyl)-ethoxy]-pyridin-3-yl}-pyrazol-1-yl)-piperidin-1-yl]-2-morpholin-4-yl-ethanone]: the Ki came to 13 nM. Same read-out and setting: the figure for `COCC(=O)N1CCC(n2cc(-c3cnc(N)c(OC(C)c4c(Cl)ccc(F)c4Cl)c3)cn2)CC1` (stereo not drawn) [Example 124, 1-[4-(4-{6-Amino-5-[1-(2,6-dichloro-3-fluoro-phenyl)-ethoxy]-pyridin-3-yl}-pyrazol-1-yl)-piperidin-1-yl]-2-methoxy-ethanone] is 14 nM; for `CC(Oc1cc(-c2cnn(C3CCN(C(=O)CN4CCCC4)CC3)c2)cnc1N)c1c(Cl)ccc(F)c1Cl` (stereo not drawn) [Example 125, 1-[4-(4-{6-Amino-5-[1-(2,6-dichloro-3-fluoro-phenyl)-ethoxy]-pyridin-3-yl}-pyrazoI-1-yl)-piperidin-1-yl]-2-pyrrolidin-1-yl-ethanone] it is 14 nM; for `CCN(CC)CC(=O)N1CCC(n2cc(-c3cnc(N)c(OC(C)c4c(Cl)ccc(F)c4Cl)c3)cn2)CC1` (stereo not drawn) [Example 126, 1-[4-(4-{6-Ainino-5-[1-(2,6-dichloro-3-fluoro-phenyl)-ethoxy]-pyridin-3-yl}-pyrazol-1-yl)-piperidin-1-yl]-2-diethylamino-ethanone] it is 15 nM. For `CC(Oc1cc(-c2cnn(C3CCNCC3)c2)cnc1N)c1cc(F)ccc1Br` (stereo not drawn) [Example 128, 3-[1-(2-Bromo-5-fluoro-phenyl)-ethoxy]-5-(1-piperidin-4-yl-1H-pyrazol-4-yl)-pyridin-2-ylamine], the inhibitory constant (Ki) turned out to be 349 nM. As for `CC(Oc1cccnc1N)c1cc(F)ccc1C#N` (stereo not drawn) [Example 129, 2-[1-(2-Amino-pyridin-3-yloxy)-ethyl]-4-fluoro-benzonitrile], the Ki is 6460 nM. `CC(Oc1cc(-c2cnn(CC(C)(C)O)c2)cnc1N)c1c(Cl)ccc(F)c1Cl` (stereo not drawn) [Example 130, 1-(4-{6-Amino-5-[1-(2,6-dichloro-3-fluoro-phenyl)-ethoxy]-pyridin-3-yl}-pyrazol-1-yl)-2-methyl-propan-2-ol]: the inhibitory constant (Ki) is 45 nM.

In the case of `CC(Oc1cc(-c2cnn(CC3(C)COC3)c2)cnc1N)c1c(Cl)ccc(F)c1Cl` (stereo not drawn) [Example 131, 3-[1-(2,6-Dichloro-3-fluoro-phenyl)-ethoxy]-5-[1-(3-methyl-oxetan-3-ylmethyl)-1H-pyrazol-4-yl]-pyridin-2-ylamine], the Ki was found to be 50 nM. As for `CC(Oc1cc(-c2cnn(CC3CCOCC3)c2)cnc1N)c1c(Cl)ccc(F)c1Cl` (stereo not drawn) [Example 132, 3-[1-(2,6-Dichloro-3-fluoro-phenyl)-ethoxy]-5-[1-(tetraydro-pyran-4-ylmethyl)-1H-pyrazol-4-yl]-pyridin-2-amine], the inhibition constant Ki was 42 nM. On to `CC(Oc1cc(-c2cnn(CCN3CCCC3=O)c2)cnc1N)c1c(Cl)ccc(F)c1Cl` (stereo not drawn) [Example 133, 1-[2-(4-{6-Amino-5-[1-(2,6-dichloro-3-fluoro-phenyl)-ethoxy]-pyridin-3-yl}pyrazol-1-yl)-ethyl]-pyrrolidin-2-one], for which the Ki was determined as 105 nM. Regarding `CC(Oc1cc(-c2cnn(C[C@H]3CCC(=O)N3)c2)cnc1N)c1c(Cl)ccc(F)c1Cl` (stereo partly drawn) [Example 134, 5-(4-{6-Amino-5-[1-(2,6-dichloro-3-fluoro-phenyl)-ethoxy]-pyridin-3-yl}-pyrazol-1-ylmethyl)-pyrrolidin-2R-one], the inhibitory constant (Ki) came out at 24 nM. `CC(Oc1cc(-c2cnn(C3CCNCC3)c2)cnc1N)c1cc(F)ccc1C#N` (stereo not drawn) [Example 135, 2-{1-[2-Amino-5-(1-piperidin-4-yl-1H-pyrazol-4-yl)-pyridin-3-yloxy]ethyl}-4-fluoro-benzonitrile]: the inhibition constant Ki was 849 nM. Still for that read-out and setting: the figure for `CC(Oc1cc(-c2cnn(C3CCNCC3)c2)cnc1N)c1c(Cl)ccc(O)c1Cl` (stereo not drawn) [Example 136, 3-{1-[2-Amino-5-(1-piperidin-4-yl-1H-pyrazol-4-yl)-pyridin-3-yloxy]-ethyl}-2,4-dichloro-phenol] is 42 nM; for `COc1ccc(Cl)c(C(C)Oc2cc(-c3cnn(C4CCNCC4)c3)cnc2N)c1Cl` (stereo not drawn) [Example 138, 3-(1-(2,6-Dichloro-3-methoxy-phenyl)-ethoxy]-5-(1-piperidin-4-yl-1H-pyrazol-4-yl)-pyridin-2-ylamine] it is 10 nM.

Turning to `CCOc1ccc(Cl)c(C(C)Oc2cc(-c3cnn(C4CCNCC4)c3)cnc2N)c1Cl` (stereo not drawn) [Example 139], the inhibition constant (Ki) came to 22 nM.

Regarding `CC(C)Oc1ccc(Cl)c(C(C)Oc2cc(-c3cnn(C4CCNCC4)c3)cnc2N)c1Cl` (stereo not drawn) [Example 140, 3-[1-(2,6-Dichloro-3-isopropoxy-phenyl)-ethoxy]-5-(1-piperidin-4-yl-1H-pyrazol-4-yl)-pyridin-2-ylamine], the Ki is 37 nM.

With `COCCOc1ccc(Cl)c(C(C)Oc2cc(-c3cnn(C4CCNCC4)c3)cnc2N)c1Cl` (stereo not drawn) [Example 141, 3-{1-(2,6-Dichloro-3-(2-methoxy-ethoxy)-phenyl]-ethoxy}-5-(1-piperidin-4-yl-1H-pyrazol-4-yl)-pyridin-2-ylamine], the Ki is 44 nM. On to `Cc1ccc(Cl)c(C(C)Oc2cc(Br)cnc2N)c1Cl` (stereo not drawn) [Example 142, 5-Bromo-3-[1-(2,6-dichloro-3-methyl-phenyl)ethoxy]-pyridin-2-ylamine], for which the Ki was determined as 2510 nM. On to `Cc1ccc(Cl)c(C(C)Oc2cc(-c3cnn(C4CCNCC4)c3)cnc2N)c1Cl` (stereo not drawn) [Example 143, 3-[1-(2,6-Dichloro-3-methyl-phenyl)-ethoxy]-5-(1-piperidin-4-yl-1H-pyrazol-4-yl)-pyridin-2-ylamine], for which the Ki was found to be 22 nM.

For the compound `CC(Oc1cc(-c2cnn(C3CCNCC3)c2)cnc1N)c1cc(F)cc(F)c1Cl` (stereo not drawn) [Example 144, 3-[1-(2-Chloro-3,5-difluoro-phenyl)-ethoxy]-5-(1-piperidin-4-yl-1H-pyrazol-4-yl)-pyridin-2-ylamine], the Ki came out at 587 nM.

Staying with this test, now noted: Met-2 substrate peptide, 50 nM HGFR, 37° C.; read-out: c-Met Ki.
Turning to `CC(Oc1cc(-c2cnn(C3CN(C(=O)CO)C3)c2)cnc1N)c1c(Cl)ccc(F)c1Cl` (stereo not drawn) [Example 105, 2-[3-(4-{6-amino-5-[1-(2,6-dichloro-3-fluorophenyl)ethoxy]pyridin-3-yl}1H-pyrazol-1-yl)azetidin-1-yl]-2-oxoethanol], the inhibition constant Ki was found to be 22 nM. On the same count and under the same terms, for `CC(=O)N1CC(Cn2cc(-c3cnc(N)c(OC(C)c4c(Cl)ccc(F)c4Cl)c3)cn2)C1` (stereo not drawn) [Example 106, 5-{1-[(1-acetylazetidin-3-yl)methyl]-1H-pyrazol-4-yl}-3-[1-(2,6-dichloro-3-fluorophenyl)ethoxy]pyridin-2-amine] the value was 29 nM. As to `CC(Oc1cc(-c2cnn(CC3CN(S(C)(=O)=O)C3)c2)cnc1N)c1c(Cl)ccc(F)c1Cl` (stereo not drawn) [Example 107, 3-[1-(2,6-dichloro-3-fluorophenyl)ethoxy]-5-(1-{[1-(methylsulfonyl)azetidin-3-yl]methyl}-1H-pyrazol-4-yl)pyridin-2-amine], the Ki was 44 nM. The same measure, in the same setting: for `CC(Oc1cc(-c2cnn(CC3CN(C(C)C)C3)c2)cnc1N)c1c(Cl)ccc(F)c1Cl` (stereo not drawn) [Example 108, 3-[1-(2,6-dichloro-3-fluorophenyl)ethoxy]-5-{1-[(1-isopropylazetidin-3-yl)methyl]-1H-pyrazol-4-yl}pyridin-2-amine] the value was 57 nM; for `CC(Oc1cc(-c2cnn(C3CN(CC(N)=O)C3)c2)cnc1N)c1c(Cl)ccc(F)c1Cl` (stereo not drawn) [Example 109, 2-[3-(4-{6-amino-5-[1-(2,6-dichloro-3-fluorophenyl)ethoxy]pyridin-3-yl}1H-pyrazol-1-yl)azetidin-1-yl]acetamide], 21 nM; for `CC(=O)N1CC(n2cc(-c3cnc(N)c(OC(C)c4c(Cl)ccc(F)c4Cl)c3)cn2)C1` (stereo not drawn) [Example 110, 5-[1-(1-acetylazetidin-3-yl)-1H-pyrazol-4-yl]-3-[1-(2,6-dichloro-3-fluorophenyl)ethoxy]pyridin-2-amine], 32 nM. In the case of `CC(Oc1cc(-c2cnn(CC3CN(CC#N)C3)c2)cnc1N)c1c(Cl)ccc(F)c1Cl` (stereo not drawn) [Example 111, {3-[(4-{6-amino-5-[1-(2,6-dichloro-3-fluorophenyl)ethoxy]pyridin-3-yl}-1H-pyrazol-1-yl)methyl]azetidin-1-yl}acetonitrile], the Ki was found to be 37 nM. Take `CC(Oc1cc(-c2cnn(CC3CN(CC4CC4)C3)c2)cnc1N)c1c(Cl)ccc(F)c1Cl` (stereo not drawn) [Example 112, 5-(1-{[1-(cyclopropylmethyl)azetidin-3-yl]methyl}1H-pyrazol-4-yl)-3-[1-(2,6-dichloro-3-fluorophenyl)ethoxy]pyridin-2-amine]: the inhibition constant (Ki) was found to be 47 nM.

As to `CC(Oc1cc(-c2cnn(C3CC4CCC(C3)N4C)c2)cnc1N)c1c(Cl)ccc(F)c1Cl` (stereo not drawn) [Example 115, 3-[1-(2,6-dichloro-3-fluorophenyl)ethoxy]-5-[1-(8-methyl-8-azabicyclo[3.2.1]oct-3-yl)-1H-pyrazol-4-yl]pyridin-2-amine], the inhibition constant (Ki) is 9 nM.

As to `CC(Oc1cc(-c2cnn(C3CCS(=O)(=O)CC3)c2)cnc1N)c1c(Cl)ccc(F)c1Cl` (stereo not drawn) [Example 116, 3-[1-(2,6-dichloro-3-fluorophenyl)ethoxy]-5-[1-(1,1-dioxidotetrahydro-2H-thiopyran-4-yl)-1H-pyrazol-4-yl]pyridin-2-amine], the Ki turned out to be 17 nM. Still for that read-out and setting: the figure for `CC(Oc1cc(-c2cnn(C3CCCS(=O)(=O)C3)c2)cnc1N)c1c(Cl)ccc(F)c1Cl` (stereo not drawn) [Example 117, 3-[1-(2,6-dichloro-3-fluorophenyl)ethoxy]-5-[1-(1,1-dioxidotetrahydro-2H-thiopyran-3-yl)-1H-pyrazol-4-yl]pyridin-2-amine] is 14 nM.

The values are drawn from US20060128724A1, “Pyrazole-substituted aminoheteroaryl compounds as protein kinase inhibitors” (AGOURON PHARMACEUTICALS, INC., priority 2004, published 2006).
